BindingDB's records for doi:10.1021/jm960486n (Eli Lilly, 1997)

Tests used:
[1] = target: Phospholipase A2 group IB, pancreatic (Homo sapiens) (UniProt P04054); assay: Inhibitory activity against human pancreatic Phospholipase A2
[2] = target: Phospholipase A2, pancreatic group IB (Sus scrofa); assay: Inhibitory activity against porcine pancreatic Phospholipase A2

Phospholipase A2 group IB, pancreatic (Homo sapiens), sequence (P04054 whole entry, looked up): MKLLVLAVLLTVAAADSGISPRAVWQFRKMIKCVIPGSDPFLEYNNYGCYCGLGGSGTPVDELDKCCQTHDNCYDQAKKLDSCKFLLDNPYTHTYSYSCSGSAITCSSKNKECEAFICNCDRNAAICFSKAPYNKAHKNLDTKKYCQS

Structure (SMILES)	IC50 [1]	IC50 [2]
NC(=O)Cc1c(Br)n(Cc2ccccc2)c2ccc(OCCCP(=O)(O)O)cc12 [[3-(1-Benzyl-2-bromo-3-carbamoylmethyl-1H-indol-5-yloxy)-propyl]-phosphonic acid]	6.2 µM	2.2 µM
NC(=O)Cc1c(Br)n(Cc2ccccc2)c2ccc(OCCCC(=O)O)cc12 [4-(1-Benzyl-2-bromo-3-carbamoylmethyl-1H-indol-5-yloxy)-butyric acid]	15.9 µM	
Cc1c(CC(N)=O)c2c(OCC(=O)O)cccc2n1Cc1cccc(Cl)c1 [Sodium; [3-carbamoylmethyl-1-(3-chloro-benzyl)-2-methyl-1H-indol-4-yloxy]-acetate]	1.2 µM	0.02 µM
Cc1c(CC(N)=O)c2c(OCC(=O)O)cccc2n1Cc1ccccc1-c1ccccc1 [Sodium; (1-biphenyl-2-ylmethyl-3-carbamoylmethyl-2-methyl-1H-indol-4-yloxy)-acetate]	4.09 µM	0.014 µM
Cc1c(CC(N)=O)c2cc(OCc3ccccc3C(=O)O)ccc2n1Cc1ccccc1 [2-(1-Benzyl-3-carbamoylmethyl-2-methyl-1H-indol-5-yloxymethyl)-benzoic acid]	22.5 µM	7.5 µM
